Laboratory results as given in patent EP3885436A1, “POLYPEPTIDES WITH PEROXIDASE ACTIVITY” (Technische Universität Wien, priority 2020, dated 2021).
Read-outs that look alike come from different tables or passages of the source.

Columns and labels:
Format in all cases: biochemical
[1] = target: T1, horseradish peroxidase variant HRP N13D/N57S/N175S/N255D/N268D, produced in E. coli (Armoracia rusticana, UniProt P00433, N205S/N285D/N298D/N43D/N87S)
T1 construct: made in house
Method: (§1) Plant HRP Type VI-A (Cat. No.: P6782) was obtained from Sigma-Aldrich (St. Louis, MO, USA). All HRP variants produced in E. coli consisted of the sequence as set forth in SEQ ID NO: 2 with the indicated mutations unless specified otherwise.
(§2) For measurements with 3,3',5,5'-tetramethylbenzidine (TMB) as substrate, the reaction mixture in each well of the 96-well plate contained a saturating hydrogen peroxide concentration of 1 mM and varying TMB concentrations (20 - 550 µM) in 50 mM phosphate-citrate buffer pH 5 in a final volume of 200 µL. Protein sample (5 µL) was mixed with 175 µl TMB-buffer mixture and the reaction was started with 20 µl hydrogen peroxide solution (10 mM). The increase in absorption was followed at 652 nm for 60s at 30 °C in a Tecan Infinite M200 PRO instrument. The kinetic parameters were calculated using Sigma Plot software (Systat Software INC., San Jose, CA, USA) and an extinction coefficient of ε652 = 39 mM^-1 cm^-1 (see Josephy, et al. "The horseradish peroxidase-catalyzed oxidation of 3, 5, 3', 5'-tetramethylbenzidine. Free radical and charge-transfer complex intermediates." Journal of Biological Chemistry 257.7 (1982): 3669-3675).
(§3) The increase in absorption was followed at 420 nm for 120 s at 30 °C in a Tecan Infinite M200 PRO instrument. The kinetic parameters were calculated using Sigma Plot software (Systat Software INC., San Jose, CA, USA) and an extinction coefficient of ε420 = 36 mM^-1 cm^-1 (see Childs and Bardsley. "The steady-state kinetics of peroxidase with 2, 2'-azino-di-(3-ethyl-benzthiazoline-6-sulphonic acid) as chromogen." Biochemical Journal 145.1 (1975): 93-103).
as §3

[2] = target: T2, horseradish peroxidase variant HRP N13D/N57S/P146Q/N175S/N255D/N268D/N275K (mHRP, SEQ ID NO: 4), produced in E. coli (Armoracia rusticana, UniProt P00433, N205S/N285D/N298D/N305K/N43D/N87S/P176Q)
T2 construct: made in house
T2 sequence (P00433 31-338 N43D/N87S/P176Q/N205S/N285D/N298D/N305K): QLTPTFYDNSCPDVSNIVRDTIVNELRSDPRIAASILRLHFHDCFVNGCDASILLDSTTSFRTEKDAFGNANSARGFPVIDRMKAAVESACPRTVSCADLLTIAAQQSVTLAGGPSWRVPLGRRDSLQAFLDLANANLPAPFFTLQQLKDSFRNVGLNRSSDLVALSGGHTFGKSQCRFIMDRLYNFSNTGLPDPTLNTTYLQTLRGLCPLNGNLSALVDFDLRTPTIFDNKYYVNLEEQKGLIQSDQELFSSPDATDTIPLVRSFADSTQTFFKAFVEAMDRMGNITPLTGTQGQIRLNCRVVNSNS
Method: as §1, §2, §3, §3

[3] = target: T3, horseradish peroxidase, wild-type HRP (rHRP, variant C1A, SEQ ID NO: 2), produced in E. coli (Armoracia rusticana, UniProt P00433); test: Enzyme kinetic parameters, 96-well plate assay; conditions: substrate TMB (20 - 550 µM), 1 mM H2O2, 50 mM phosphate-citrate buffer pH 5, 30 °C; Table 6
T3 construct: made in house
T3 sequence (P00433 with tags, fused parts or gaps): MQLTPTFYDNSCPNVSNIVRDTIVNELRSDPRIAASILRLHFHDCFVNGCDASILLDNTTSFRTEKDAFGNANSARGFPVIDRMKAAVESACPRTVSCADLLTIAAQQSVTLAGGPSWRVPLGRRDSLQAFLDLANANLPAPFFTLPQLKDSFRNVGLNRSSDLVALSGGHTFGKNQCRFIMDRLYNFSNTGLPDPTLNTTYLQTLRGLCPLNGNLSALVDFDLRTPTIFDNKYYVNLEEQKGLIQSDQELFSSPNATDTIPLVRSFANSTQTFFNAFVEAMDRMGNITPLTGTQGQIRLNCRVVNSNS
Method: as §1, §2
(§4) The increase in absorption was followed at 420 nm for 120 s at 30 °C in a Tecan Infinite M200 PRO instrument. […]

[4] = target: T4, plant-derived HRP (pHRP), Plant HRP Type VI-A, horseradish peroxidase (Armoracia rusticana, UniProt P00433); test: Enzyme kinetic parameters, 96-well plate assay; conditions: substrate TMB (20 - 550 µM), 1 mM H2O2, 50 mM phosphate-citrate buffer pH 5, 30 °C; Table 6
T4 construct: The plant-derived enzyme undergoes post-translational modifications, resulting inter alia in a free N-terminus without an appended methionine; purchased Sigma-Aldrich P6782; host or cells: extracted from the plant
T4 sequence (P00433 31-338 limits assumed): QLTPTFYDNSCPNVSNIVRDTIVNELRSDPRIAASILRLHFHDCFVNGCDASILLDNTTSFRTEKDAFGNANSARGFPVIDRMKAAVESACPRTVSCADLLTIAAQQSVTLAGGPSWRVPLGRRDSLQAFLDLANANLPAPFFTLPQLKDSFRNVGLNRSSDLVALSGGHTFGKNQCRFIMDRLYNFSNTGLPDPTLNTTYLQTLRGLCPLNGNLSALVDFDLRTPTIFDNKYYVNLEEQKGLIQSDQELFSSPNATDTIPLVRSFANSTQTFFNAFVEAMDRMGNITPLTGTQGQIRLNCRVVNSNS
Method: as §1, §2, §4

[5] = substrate H2O2 (0.001 - 1 mM), 10 mM ABTS, 50 mM phosphate-citrate buffer pH 5, 30 °C, Table 3

T1 sequence (P00433 31-338 N43D/N87S/N205S/N285D/N298D): as the sequence (P00433 31-338 N43D/N87S/P176Q/N205S/N285D/N298D/N305K) above, with Q146P, K275N counted along it

SMILES	kcat [1, 5]	kcat [2, 5]	kcat [3]	kcat [4]	kcat ([1]; substrate TMB (20 - 550 µM), 1 mM H2O2, 50 mM phosphate-citrate buffer pH 5, 30 °C, Table 2)	kcat ([2]; substrate TMB (20 - 550 µM), 1 mM H2O2, 50 mM phosphate-citrate buffer pH 5, 30 °C, Table 2 (Example 3))	kcat ([2]; substrate TMB (20 - 550 µM), 1 mM H2O2, 50 mM phosphate-citrate buffer pH 5, 30 °C, Table 6 (Example 4))
OO [H2O2, hydrogen peroxide]	1152 s⁻¹	1344 ± 22 s⁻¹					
Cc1cc(-c2cc(C)c(N)c(C)c2)cc(C)c1N [TMB, 3,3',5,5'-tetramethylbenzidine]			4169 ± 207 s⁻¹	4343 s⁻¹	3236 ± 193 s⁻¹	4342 ± 292 s⁻¹	4293 ± 171 s⁻¹
